Experimental data taken from patent US10881110B2, “Herbicidal compositions comprising isoxazolo[5,4-b]pyridines” (BASF SE, priority 2014, dated 2021).

How the values were obtained:
Experiment in all cases: greenhouse post-emergence herbicidal test
SASKR = type: in vivo, Salsola kali; set-up: key: scale 0 to 100; conditions: 6 days after treatment
Method: (§1) The culture containers used were plastic pots containing medium loamy sand with approximately 4.6% of humus and 69.9% sand as substrate. The seeds of the test plants were sown separately for each species.
(§2) For the post-emergence treatment, the test plants were grown to a plant height of from 1 to 15 cm, depending on the plant habit, and only then treated with the active compounds which had been suspended or emulsified in water. To this end, the test plants were either sown directly, and grown in the same containers, or they were first grown separately as seedlings and transplanted into the test containers a few days prior to treatment.
(§3) Depending on the species, the plants were kept at 10-25° C. and 20-35° C., respectively.
(§4) The test period extended over 1 to 3 weeks. During this time, the plants were tended and their response to the individual treatments was evaluated 20 days after treatment except mentioned otherwise.
(§5) Evaluation was carried out using a scale from 0 to 100. 100 means no emergence of the plants, or complete destruction of at least the above-ground parts, and 0 means no damage or normal course of growth.
(§6) The respective stated components A and B, and, if appropriate, C, were formulated as a 10% by weight strength emulsion concentrate and, with addition of the amount of solvent system, introduced into the spray liquor used for applying the active compound. In the examples, the solvent used was water.
(§7) In the examples below, using the method of S. R. Colby (1967) “Calculating synergistic and antagonistic responses of herbicide combinations”, Weeds 15, p. 22 ff., the value E, which is expected if the activity of the individual active compounds is only additive, was calculated. E=X+Y−(X·Y/100)

ABUTH = type: in vivo, Abutilon theophrast; set-up: key to herbicidal activity against ABUTH found: rating on a scale from 0 to 100; conditions: post emergence, 6 days after treatment, g/ha a.i.: I.1 31.25
Method in brief: (§8)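 Combination activity judged against additive expectation by Colby, E=X+Y−(X·Y/100), from 0–100 damage ratings taken 20 days post-spray. Plants at 1–15 cm in loamy sand (69.9% sand) were sprayed with components formulated as 10% w/w emulsion concentrate in water.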

MATCH = type: in vivo, Matricaria recutita; conditions: post emergence
Method in brief: as §8

SORVU = type: in vivo; conditions: 6 days after treatment
CONAR = type: in vivo, Convolvulus arvensis; set-up: key: rating on a scale from 0 to 100; conditions: 6 days after treatment
Method in brief: as §8

POLCO = type: in vivo, Polygonum convolvulus; set-up: key to herbicidal activity against POLCO found: rating on a scale from 0 to 100; conditions: post emergence, 6 days after treatment
Method in brief: (§9)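 Post-emergence greenhouse test: plants in loamy sand, sprayed at 1–15 cm height with aqueous spray liquor from 10% emulsion concentrates, kept at 10-25 °C or 20-35 °C by species. Damage scored 0–100 (100 = complete destruction), usually 20 days after treatment. Expected additive effect E from Colby: E=X+Y−(X·Y/100).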

KCHSC = type: in vivo, Kochia scoparia; set-up: key to herbicidal activity against KCHSC found: rating on a scale from 0 to 100; conditions: post emergence, 6 days after treatment
Method in brief: as §9

ERICA = type: in vivo, Conyza canadensis; conditions: post emergence; 6 days after treatment; g/ha a.i.: I.1 125; naptalam 50; mixture 125+50
Method in brief: as §8

POLAV = type: in vivo, Polygonum aviculare; set-up: key: rating on a scale from 0 to 100; conditions: 6 days after treatment
Method: as §1, §2, §3, §4, §5, §6, §7

VIOAR = type: in vivo, Viola arvensis; set-up: key to herbicidal activity against VIOAR found / herbicidal activity against VIOLA found: rating on a scale from 0 to 100; conditions: post emergence, 6 days after treatment
Method in brief: as §9

PAPRH = type: in vivo, Papaver rhoeas; conditions: application rate a.i.: I.1 62.5 g/ha, B.87 (carfentrazone-ethyl) 1.75 g/ha, alone or as mixture (composition 1.87)
Method in brief: as §8

GERPU = type: in vivo, Geranium pusillum; conditions: application rate a.i.: I.1 31.25 g/ha, B.87 (carfentrazone-ethyl) 1.75 g/ha, alone or as mixture (composition 1.87)
Method: as §1, §2, §3, §4, §5, §6, §7

GERDI = type: in vivo, Geranium dissectum; conditions: post emergence; application rate a.i.: I.1 62.5 g/ha, B.87 (carfentrazone-ethyl) 1.75 g/ha, alone or as mixture (composition 1.87)
Method in brief: as §8

SEBEX = type: in vivo, Sesbania exaltata; conditions: application rate a.i.: I.1 31.25 g/ha, B.87 (carfentrazone-ethyl) 1.75 g/ha, alone or as mixture (composition 1.87)
Method: as §1, §2, §3, §4, §5, §6, §7

LAMAM = type: in vivo, Lamium amplexicaule; conditions: B.87 (carfentrazone-ethyl) 1.75 g/ha, alone or as mixture (composition 1.87)
Method: as §1, §2, §3, §4, §5, §6, §7

STEME = type: in vivo, Stellaria media; set-up: key: scale 0 to 100; conditions: 6 days after treatment, g/ha a.i.: I.1 31.25, B.96 35, mixture 31.25+35
Method in brief: as §8

POLPE = type: in vivo, Persicaria maculosa; set-up: key: scale 0 to 100; conditions: 6 days after treatment, g/ha a.i.: I.1 31.25, B.96 35, mixture 31.25+35
Method: as §1, §2, §3, §4, §5, §6, §7

GALAP = type: in vivo, Galium aparine; set-up: key to herbicidal activity against GALAP found: rating on a scale from 0 to 100; conditions: post emergence, 6 days after treatment, g/ha a.i.: I.1 62.5
Method in brief: as §9

IPOHE = type: in vivo, Ipomoea hederacea; set-up: key to herbicidal activity against IPOHE found: rating on a scale from 0 to 100; conditions: post emergence, 6 days after treatment
Method in brief: as §9

[1] = g/ha a.i.: I.1 31.25, naptalam 200, mixture 31.25+200
[2] = g/ha a.i.: I.1 62.5, naptalam 50, mixture 62.5+50
[3] = g/ha a.i.: I.1 62.5, naptalam 200, mixture 62.5+200
[4] = g/ha a.i.: I.1 31.25, naptalam 50, mixture 31.25+50
[5] = g/ha a.i.: I.1 31.25, naptalam 100, mixture 31.25+100
[6] = g/ha a.i.: I.1 62.5, naptalam 100, mixture 62.5+100
[7] = g/ha a.i.: I.1 62.5, B.96 140, mixture 62.5+140
[8] = g/ha a.i.: I.1 31.25, B.96 140, mixture 31.25+140
[9] = g/ha a.i.: I.1 31.25, B.96 35, mixture 31.25+35
[10] = g/ha a.i.: I.1 31.25, B.96 70, mixture 31.25+70
[11] = g/ha a.i.: I.1 62.5, B.96 70, mixture 62.5+70
[12] = g/ha a.i.: I.1 62.5, B.96 35, mixture 62.5+35

O=C(O)c1ccccc1C(=O)Nc1cccc2ccccc12 [naptalam]
herbicidal activity against SASKR found (SASKR; [1]): 80 | herbicidal activity against SASKR found (SASKR; [2]): 70 | herbicidal activity against SASKR found (SASKR; [3]): 80 | herbicidal activity against ABUTH found (ABUTH; naptalam 100, mixture 31.25+100): 85 | herbicidal activity against MATCH found (MATCH; 6 days after treatment, g/ha a.i.: I.1 31.25, naptalam 50, mixture 31.25+50): 30 | herbicidal activity against MATCH found (MATCH; 6 days after treatment, g/ha a.i.: I.1 31.25, naptalam 100, mixture 31.25+100): 65 | herbicidal activity against MATCH found (MATCH; 6 days after treatment, g/ha a.i.: I.1 62.5, naptalam 50, mixture 62.5+50): 30 | herbicidal activity against SORVU found (SORVU; [3]): 50 | herbicidal activity against CONAR found (CONAR; [4]): 80 | herbicidal activity against CONAR found (CONAR; [5]): 80 | herbicidal activity against CONAR found (CONAR; [1]): 80 | herbicidal activity against CONAR found (CONAR; g/ha a.i.: I.1 125, naptalam 100, mixture 125+100): 80 | herbicidal activity against POLCO found (POLCO; [4]): 75 | herbicidal activity against POLCO found (POLCO; [2]): 75 | herbicidal activity against KCHSC found (KCHSC; [5]): 85 | herbicidal activity against KCHSC found (KCHSC; [1]): 85 | herbicidal activity against ERICA found (ERICA): 80 | herbicidal activity against POLAV found (POLAV; [4]): 70 | herbicidal activity against POLAV found (POLAV; [1]): 75 | herbicidal activity against POLAV found (POLAV; [2]): 70 | herbicidal activity against POLAV found (POLAV; [6]): 75 | herbicidal activity against POLAV found (POLAV; [3]): 75 | herbicidal activity against VIOAR found (VIOAR; [1]): 70 | herbicidal activity against VIOAR found (VIOAR; [6]): 65 | herbicidal activity against VIOAR found (VIOAR; [3]): 70

CCOC(=O)C(Cl)Cc1cc(-n2nc(C)n(C(F)F)c2=O)c(F)cc1Cl (stereo not drawn) [B.87, carfentrazone-ethyl]
herbicidal activity against MATCH found (MATCH; application rate a.i.: I.1 31.25 g/ha, B.87 (carfentrazone-ethyl) 1.75 g/ha, alone or as mixture (composition 1.87)): 75 | herbicidal activity against MATCH found (MATCH; application rate a.i.: I.1 62.5 g/ha, B.87 (carfentrazone-ethyl) 1.75 g/ha, alone or as mixture (composition 1.87)): 75 | herbicidal activity against PAPRH found (PAPRH): 30 | herbicidal activity against GERPU, found (GERPU): 75 | herbicidal activity against GERDI found (GERDI): 70 | herbicidal activity against SEBEX, found (SEBEX): 75 | herbicidal activity against LALAM, found (LAMAM; application rate a.i.: I.1 31.25 g/ha): 80 | herbicidal activity against LAMAM, found (LAMAM; application rate a.i.: I.1 62.5 g/ha): 80

CS(=O)(=O)c1ccc(C(=O)C2=C(Sc3ccccc3)C3CCC(C3)C2=O)c(Cl)c1 (stereo not drawn) [B.96, benzobicyclon]
herbicidal activity against SASKR found (SASKR; [7]): 65 | herbicidal activity against ABUTH found (ABUTH; B.96 35, mixture 31.25+35): 80 | herbicidal activity against ABUTH found (ABUTH; B.96 70, mixture 31.25+70): 85 | herbicidal activity against STEME found (STEME): 85 | herbicidal activity against SORVU found (SORVU; [8]): 60 | herbicidal activity against POLPE found (POLPE): 85 | herbicidal activity against GALAP found (GALAP; B.96 70, mixture 62.5+70): 75 | herbicidal activity against GALAP found (GALAP; B.96 140, mixture 62.5+140): 80 | herbicidal activity against CONAR found (CONAR; [7]): 75 | herbicidal activity against IPOHE found (IPOHE; [9]): 70 | herbicidal activity against IPOHE found (IPOHE; [10]): 70 | herbicidal activity against IPOHE found (IPOHE; [8]): 70 | herbicidal activity against IPOHE found (IPOHE; [7]): 70 | herbicidal activity against POLCO found (POLCO; [10]): 70 | herbicidal activity against POLCO found (POLCO; [8]): 80 | herbicidal activity against POLCO found (POLCO; [11]): 70 | herbicidal activity against POLCO found (POLCO; [7]): 80 | herbicidal activity against KCHSC found (KCHSC; [9]): 35 | herbicidal activity against KCHSC found (KCHSC; [10]): 40 | herbicidal activity against KCHSC found (KCHSC; [8]): 55 | herbicidal activity against KCHSC found (KCHSC; [12]): 35 | herbicidal activity against KCHSC found (KCHSC; [11]): 40 | herbicidal activity against POLAV found (POLAV; [11]): 70 | herbicidal activity against POLAV found (POLAV; [7]): 70 | herbicidal activity against VIOAR found (VIOAR; [9]): 65 | herbicidal activity against VIOAR found (VIOAR; [10]): 65 | herbicidal activity against VIOAR found (VIOAR; [8]): 65 | herbicidal activity against VIOAR found (VIOAR; [12]): 65 | herbicidal activity against VIOAR found (VIOAR; [11]): 65 | herbicidal activity against VIOAR found (VIOAR; [7]): 65
